{
  "source": "paper PMC5334615",
  "about": "“Induction of Diverse Bioactive Secondary Metabolites from the Mangrove Endophytic Fungus Trichoderma sp. (Strain 307) by Co-Cultivation with Acinetobacter johnsonii (Strain B2)” (Marine Drugs, 2017)",
  "key": {"[1]": {"system": "rat pituitary adenoma GH3 cell lines", "test": "MTT cytotoxicity assay, GH3 cells", "format": "cell-based", "conditions": "MTT method, read-out: Cytotoxicity IC50 against GH3 cell lines", "method": "(§1) The cytotoxic activities against rat pituitary adenoma MMQ and GH3 cell lines were evaluated by MTT assay following the previous process. Briefly, MMQ and GH3 cell lines were seeded in 96-well plates (Corning, New York, NY, USA) at a density of 5 × 10^4 cells per well. Then, 10 μL of MTT reagent was added to each well and incubated at 37 °C with 5% CO2 for 4 h. Subsequently, 100 μL of acidified isopropyl alcohol was added. Then the OD value was measured at 450 nm using a microplate reader and the cell proliferation rate relative to the control was calculated. The IC50 was analyzed by SPSS 13.0 (SPSS, Chicago, IL, USA). Rat normal pituitary cells were used as a positive control."}, "α-glucosidase": {"biological_target": "α-glucosidase (Saccharomyces cerevisiae, UniProt P53341)", "sequence (P53341 whole entry)": "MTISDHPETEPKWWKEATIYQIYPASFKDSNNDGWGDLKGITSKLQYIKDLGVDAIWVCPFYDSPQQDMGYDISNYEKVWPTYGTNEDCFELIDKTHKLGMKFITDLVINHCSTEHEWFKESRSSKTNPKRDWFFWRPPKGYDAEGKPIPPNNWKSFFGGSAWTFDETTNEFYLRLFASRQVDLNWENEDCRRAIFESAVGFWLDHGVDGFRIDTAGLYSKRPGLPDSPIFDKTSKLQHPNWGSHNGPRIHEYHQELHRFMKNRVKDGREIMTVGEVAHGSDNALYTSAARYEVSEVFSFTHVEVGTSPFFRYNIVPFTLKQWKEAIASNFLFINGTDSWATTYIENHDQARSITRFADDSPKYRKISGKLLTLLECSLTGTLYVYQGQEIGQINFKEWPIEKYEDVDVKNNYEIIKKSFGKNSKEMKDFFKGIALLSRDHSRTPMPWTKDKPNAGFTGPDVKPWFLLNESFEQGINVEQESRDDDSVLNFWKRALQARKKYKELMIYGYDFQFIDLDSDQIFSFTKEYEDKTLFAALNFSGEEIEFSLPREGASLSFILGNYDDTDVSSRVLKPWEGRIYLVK", "format": "biochemical", "method": "The assay of α-glucosidase inhibitory activity was carried out according to the reported method, with minor modifications. All of the assays were performed under 0.01 M potassium phosphate buffer (pH 7). Enzyme solutions were prepared to give 2.0 Units/mL in 2 mL buffer solution. Test samples were dissolved in dimethyl sulphoxide (DMSO) to give an initial concentration of 4000 μM/L. One-hundred fifty-five microliters of phosphate buffer, 10 μL of test samples, and 10 μL of diluted enzyme solution were mixed in each well of a 96-well microtiter plate. After 20 min incubation at 37 °C, 25 μL of substrate (p-nitrophenyl-α-D-glucopyranoside, 1.5 mg/mL) was added to each well to begin the enzymatic reaction. The reaction was monitored spectrophotometrically by measuring the absorbance at 410 nm for a 1 min interval. […] All measurements were done in triplicate from two independent experiments. The reported IC50 was the average value of two independent experiments."}, "[2]": {"system": "rat prolactinoma MMQ cell lines", "test": "MTT cytotoxicity assay, MMQ cells", "format": "cell-based", "conditions": "MTT method, read-out: Cytotoxicity IC50 against MMQ cell lines", "method": "as §1"}, "[3]": {"system": "rat normal pituitary cells (RPC)", "test": "MTT cytotoxicity assay, rat normal pituitary cells", "format": "cell-based", "conditions": "tumour cell IC50 compared with RPC IC50", "method": "as §1"}, "[4]": {"test": "MTT cytotoxicity assay, rat normal pituitary cells", "format": "cell-based", "conditions": "rat, rat normal pituitary cells (RPC); MTT method; normal cells used as control; read-out: Cytotoxicity IC50 against rat normal pituitary cells (RPC)", "method": "as §1"}},
  "data": [
    {"smiles": "C[C@@H]1CCCCCCCC(=O)Cc2cc(O)cc(O)c2C(=O)O1", "note": "[Compound 17, (3R)-nordinone]", "values": [
      {"measurement": "IC50", "setting": "[1]", "value": 12.3, "unit": "µM"},
      {"measurement": "α-Glucosidase inhibitory effect, fold better than acarbose", "setting": "α-glucosidase", "value": "seven-fold"},
      {"measurement": "IC50", "setting": "[2]", "value": 10.1, "unit": "µM"},
      {"measurement": "Cytotoxicity against GH3/MMQ cells, fold better than against RPC cells", "setting": "[3]", "value": "ten-fold"},
      {"measurement": "IC50", "setting": "[4]", "value": 100, "unit": "µM"}
    ]},
    {"smiles": "C[C@H]1CCC(=O)CCCCc2cc(O)cc(O)c2C(=O)O1", "note": "[Compound 8, (3S)-6-oxo-de-O-methyllasiodiplodin]", "values": [
      {"measurement": "IC50", "setting": "[1]", "value": 21.4, "unit": "µM"},
      {"measurement": "IC50", "setting": "[2]", "value": 13.6, "unit": "µM"},
      {"measurement": "Cytotoxicity against GH3/MMQ cells, fold better than against RPC cells", "setting": "[3]", "value": "seven-fold"},
      {"measurement": "IC50", "setting": "[4]", "value": 143, "unit": "µM"}
    ]},
    {"smiles": "C[C@@H]1CCCCCCCc2cc(O)cc(O)c2C(=O)O1", "note": "[Compound 9, (3R)-de-O-methyllasiodiplodin]", "values": [
      {"measurement": "IC50", "setting": "[1]", "value": 6.44, "unit": "µM"},
      {"measurement": "IC50", "setting": "[2]", "value": 6.58, "unit": "µM"},
      {"measurement": "IC50", "setting": "[4]", "value": 6.94, "unit": "µM"}
    ]},
    {"smiles": "COc1cc(O)cc2c1C(=O)O[C@H](C)CCCCC/C=C/2", "note": "[Compound 16, (E)-9-etheno-lasiodiplodin]", "values": [
      {"measurement": "α-Glucosidase inhibitory effect, fold better than acarbose", "setting": "α-glucosidase", "value": "seven-fold"}
    ]}
  ]
}
